Results: US9049864B2, “Pyridazinone herbicidal compounds” (Syngenta Limited, priority 2012, dated 2015)

How the values were obtained:
Experiment in all cases: Post-emergence herbicidal glasshouse test, percentage damage to the plant
Assay type in all cases: in vivo
Settings in all cases: post-emergence, 1000 g/ha, evaluated after 13 days
[1] = system: Amaranthus retoflexus (AMARE)
Outline: (§1)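 Activity appears as a score from 1 (0-19% damage) to 5 (80-100%), assessed 13 days after a post-emergence spray of 8-day-old plants. Comparative runs used 250, 500 and 1000 g/ha; the standard rate was 1000 g/ha, formulated in acetone/water (50:50) with 0.5% Tween 20.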

[2] = system: Echinochloa crus-galli (ECHCG)
Outline: as §1

[3] = system: Ipomoea hederacea (IPOHE)
Outline: as §1

[4] = system: Alopecurus myosuroides (ALOMY)
Outline: as §1

Setaria faberi (SETFA) = system: Setaria faberi (SETFA)
Outline: as §1

Solanum nigrum (SOLNI) = system: Solanum nigrum (SOLNI)
Outline: as §1

| SMILES | POST Application AMARE, percentage damage (five point scale) [1] | POST Application ECHCG, percentage damage (five point scale) [2] | POST Application IPOHE, percentage damage (five point scale) [3] | POST Application ALOMY, percentage damage (five point scale) [4] | POST Application SETFA, percentage damage (five point scale) (Setaria faberi (SETFA)) | POST Application SOLNI, percentage damage (five point scale) (Solanum nigrum (SOLNI)) |
| --- | --- | --- | --- | --- | --- | --- |
| COC(=O)Oc1c(C)nn(C)c(=O)c1-n1nc(Cl)c2ccccc21 [Compound 3.005] | 4 (4=60-79%) | 3 (3=40-59%) | 5 (5=80-100%) | 1 (1=0-19%) | 1 (1=0-19%) | 5 (5=80-100%) |
| Cc1nn(C)c(=O)c(-n2c(Cl)c(Cl)c3ccccc32)c1OC(=O)C(C)(C)C [Compound 3.008] | 5 (5=80-100%) | 3 (3=40-59%) | 5 (5=80-100%) | 2 (2=20-39%) | 1 (1=0-19%) | 5 (5=80-100%) |
| CN1N=C(COCC(F)(F)F)C(=O)C(n2c(Cl)c(Cl)c3ccccc32)C1=O (stereo not drawn) [Compound 2.012] | 1 (1=0-19%) | 1 (1=0-19%) | 4 (4=60-79%) | 1 (1=0-19%) | 1 (1=0-19%) | 4 (4=60-79%) |
| CCC1=NN(C)C(=O)C(n2c(Cl)c(Cl)c3ccccc32)C1=O (stereo not drawn) [Compound 2.027] | 4 (4=60-79%) | 1 (1=0-19%) | 5 (5=80-100%) | 1 (1=0-19%) | 1 (1=0-19%) | 5 (5=80-100%) |
| CN1N=CC(=O)C(n2ccc3ccc(Br)cc32)C1=O (stereo not drawn) [Compound 1.006] | 1 (1=0-19%) | 1 (1=0-19%) | 1 (1=0-19%) | 1 (1=0-19%) | 1 (1=0-19%) | 4 (4=60-79%) |
| CN1N=C(OCC(F)F)C(=O)C(n2c(Cl)c(Cl)c3ccccc32)C1=O (stereo not drawn) [Compound 2.020] | 4 (4=60-79%) | 1 (1=0-19%) | 3 (3=40-59%) | 1 (1=0-19%) | 1 (1=0-19%) | 4 (4=60-79%) |
| CN1N=CC(=O)C(n2c(Cl)c(Cl)c3ccccc32)C1=O (stereo not drawn) [Compound 1.013] | 5 (5=80-100%) | 1 (1=0-19%) | 5 (5=80-100%) | 1 (1=0-19%) | 2 (2=20-39%) | 5 (5=80-100%) |
| CC(C)CC1=NN(C)C(=O)C(n2c(Cl)c(Cl)c3ccccc32)C1=O (stereo not drawn) [Compound 2.009] | 1 (1=0-19%) | 1 (1=0-19%) | 2 (2=20-39%) | 1 (1=0-19%) | 1 (1=0-19%) | 4 (4=60-79%) |
| CN1N=C(OCC(F)(F)F)C(=O)C(n2c(Cl)c(Cl)c3ccccc32)C1=O (stereo not drawn) [Compound 2.024] | 2 (2=20-39%) | 1 (1=0-19%) | 1 (1=0-19%) | 1 (1=0-19%) | 1 (1=0-19%) | 2 (2=20-39%) |
| COCC1=NN(C)C(=O)C(n2c(Cl)c(Cl)c3ccccc32)C1=O (stereo not drawn) [Compound 2.008] | 3 (3=40-59%) | 1 (1=0-19%) | 5 (5=80-100%) | 1 (1=0-19%) | 1 (1=0-19%) | 5 (5=80-100%) |
| CCCOC1=NN(C)C(=O)C(n2c(Cl)c(Cl)c3ccccc32)C1=O (stereo not drawn) [Compound 2.018] | 3 (3=40-59%) | 1 (1=0-19%) | 4 (4=60-79%) | 1 (1=0-19%) | 1 (1=0-19%) | 4 (4=60-79%) |
| CN1N=C(S(C)(=O)=O)C(=O)C(n2c(Cl)c(Cl)c3ccccc32)C1=O (stereo not drawn) [Compound 2.004] | 2 (2=20-39%) | 1 (1=0-19%) | 2 (2=20-39%) | 1 (1=0-19%) | 1 (1=0-19%) | 2 (2=20-39%) |
| CN1N=C(Br)C(=O)C(n2c(Cl)c(Cl)c3ccccc32)C1=O (stereo not drawn) [Compound 2.028] | 5 (5=80-100%) | 1 (1=0-19%) | 5 (5=80-100%) | 1 (1=0-19%) | 1 (1=0-19%) | 5 (5=80-100%) |
| CN1N=C(C2CC2)C(=O)C(n2c(Cl)c(Cl)c3ccccc32)C1=O (stereo not drawn) [Compound 2.026] | 4 (4=60-79%) | 1 (1=0-19%) | 5 (5=80-100%) | 1 (1=0-19%) | 2 (2=20-39%) | 5 (5=80-100%) |
| Cc1nn(C)c(=O)c(-n2c(Cl)c(Cl)c3ccccc32)c1OC(=O)OC(C)C [Compound 3.011] | 5 (5=80-100%) | 4 (4=60-79%) | 5 (5=80-100%) | 1 (1=0-19%) | 2 (2=20-39%) | 5 (5=80-100%) |
| Cc1cccc2ccn(C3C(=O)C=NN(C)C3=O)c12 (stereo not drawn) [Compound 1.008] | 1 (1=0-19%) | 1 (1=0-19%) | 2 (2=20-39%) | 1 (1=0-19%) | 1 (1=0-19%) | 4 (4=60-79%) |
| CC1=NN(C)C(=O)C(n2cc(Br)c3ccccc32)C1=O (stereo not drawn) [Compound 1.025] | 4 (4=60-79%) | 1 (1=0-19%) | 3 (3=40-59%) | 1 (1=0-19%) | 1 (1=0-19%) | 5 (5=80-100%) |
| CC(C)COC1=NN(C)C(=O)C(n2c(Cl)c(Cl)c3ccccc32)C1=O (stereo not drawn) [Compound 2.019] | 4 (4=60-79%) | 1 (1=0-19%) | 2 (2=20-39%) | 1 (1=0-19%) | 1 (1=0-19%) | 4 (4=60-79%) |
| CC(C)N1N=CC(=O)C(n2cc(Cl)c3ccccc32)C1=O (stereo not drawn) [Compound 1.010] | 1 (1=0-19%) | 1 (1=0-19%) | 1 (1=0-19%) | 1 (1=0-19%) | 1 (1=0-19%) | 3 (3=40-59%) |
